# Tests used:
# [1] = target: Nucleolar and coiled-body phosphoprotein 1 (Homo sapiens) (UniProt Q14978); further: assay method not described here
# [2] = target: Inner centromere protein (Homo sapiens) (UniProt Q9NQS7); further: assay method not described here
# [3] = target: Nuclear pore complex protein Nup155 (Homo sapiens) (UniProt O75694); further: assay method not described here
# [4] = target: Squalene synthase (Homo sapiens) (UniProt P37268); further: assay method not described here
# [5] = target: Threonine--tRNA ligase 1, cytoplasmic (Homo sapiens) (UniProt P26639); further: assay method not described here
# [6] = target: Ribosyldihydronicotinamide dehydrogenase [quinone] (Homo sapiens) (UniProt P16083); further: assay method not described here
# [7] = target: Peptidyl-prolyl cis-trans isomerase A (Homo sapiens) (UniProt P62937); further: assay method not described here
# [8] = target: Neuronal migration protein doublecortin (Homo sapiens) (UniProt O43602); further: assay method not described here
# [9] = species on record: Homo sapiens; further: assay method not described here
# [10] = target: RNA-binding protein FUS (Homo sapiens) (UniProt P35637); further: assay method not described here
# [11] = target: Rab-like protein 3 (Homo sapiens) (UniProt Q5HYI8); further: assay method not described here
# [12] = target: Lamin-B1 (Homo sapiens) (UniProt P20700); further: assay method not described here
# [13] = target: Pre-mRNA-processing factor 40 homolog A (Homo sapiens) (UniProt O75400); further: assay method not described here
# [14] = target: Gamma-tubulin complex component 2 (Homo sapiens) (UniProt Q9BSJ2); further: assay method not described here
# [15] = target: Coatomer subunit epsilon (Homo sapiens) (UniProt O14579); further: assay method not described here
# [16] = target: Small ribosomal subunit protein eS19 (Homo sapiens) (UniProt P39019); further: assay method not described here
# [17] = target: MICOS complex subunit MIC60 (Homo sapiens) (UniProt Q16891); further: assay method not described here
# [18] = target: ATP-dependent DNA helicase Q1 (Homo sapiens) (UniProt P46063); further: assay method not described here
# [19] = species on record: Homo sapiens; remark: listed apart in the source; further: assay method not described here
# [20] = species on record: Homo sapiens; remark: listed apart in the source; further: assay method not described here
# [21] = target: Serine/threonine-protein kinase SIK2 (Homo sapiens) (UniProt Q9H0K1); further: assay method not described here
# [22] = target: NBAS subunit of NRZ tethering complex (Homo sapiens) (UniProt A2RRP1); further: assay method not described here
# [23] = target: Succinate--CoA ligase [ADP-forming] subunit beta, mitochondrial (Homo sapiens) (UniProt Q9P2R7); further: assay method not described here
# [24] = target: tRNA N6-adenosine threonylcarbamoyltransferase (Homo sapiens) (UniProt Q9NPF4); further: assay method not described here
# [25] = target: Ephrin type-B receptor 2 (Homo sapiens, UniProt P29323); test: Inhibition of Nano Luc-fused full length C-terminal EPHB2 (unknown origin) expressed in HEK293T cells using NanoGlo as substrate incubated for 2 hrs in presence of tracer by NanoBRET assay; type: cell-based
# [26] = target: Calcium/calmodulin-dependent protein kinase type IV (Homo sapiens) (UniProt Q16566); further: assay method not described here
# [27] = target: Chloride intracellular channel protein 1 (Homo sapiens) (UniProt O00299); further: assay method not described here
# [28] = target: Heterogeneous nuclear ribonucleoproteins A2/B1 (Homo sapiens) (UniProt P22626); further: assay method not described here
# [29] = target: 26S proteasome regulatory subunit 6B (Homo sapiens) (UniProt P43686); further: assay method not described here
# [30] = target: T-complex protein 1 subunit zeta (Homo sapiens) (UniProt P40227); further: assay method not described here
# [31] = target: NADH dehydrogenase [ubiquinone] iron-sulfur protein 3, mitochondrial (Homo sapiens) (UniProt O75489); further: assay method not described here
# [32] = target: AP-2 complex subunit mu (Homo sapiens) (UniProt Q96CW1); further: assay method not described here
# [33] = species on record: Homo sapiens; remark: listed apart in the source; further: assay method not described here
# [34] = target: Heat shock protein HSP 90-alpha (Homo sapiens) (UniProt P07900); further: assay method not described here
# [35] = target: 116 kDa U5 small nuclear ribonucleoprotein component (Homo sapiens) (UniProt Q15029); further: assay method not described here
# [36] = target: Serine/threonine-protein kinase Nek1 (Homo sapiens) (UniProt Q96PY6); further: assay method not described here
# [37] = target: Epidermal growth factor receptor (Homo sapiens) (UniProt P00533); further: assay method not described here
# [38] = target: Structural maintenance of chromosomes protein 2 (Homo sapiens) (UniProt O95347); further: assay method not described here
# [39] = target: Hsp90 co-chaperone Cdc37 (Homo sapiens) (UniProt Q16543); further: assay method not described here
# [40] = target: Spectrin alpha chain, non-erythrocytic 1 (Homo sapiens) (UniProt Q13813); further: assay method not described here
# [41] = target: Small ribosomal subunit protein mS23 (Homo sapiens) (UniProt Q9Y3D9); further: assay method not described here
# [42] = target: Protein salvador homolog 1 (Homo sapiens) (UniProt Q9H4B6); further: assay method not described here
# [43] = target: 26S proteasome non-ATPase regulatory subunit 3 (Homo sapiens) (UniProt O43242); further: assay method not described here
# [44] = target: Lysine--tRNA ligase (Homo sapiens) (UniProt Q15046); further: assay method not described here
# [45] = target: Antigen peptide transporter 2 (Homo sapiens) (UniProt Q03519); further: assay method not described here
# [46] = target: Protein transport protein Sec16A (Homo sapiens) (UniProt O15027); further: assay method not described here
compound,measurement,setting,value
Cc1ccc(C(=O)Nc2cccc(C(F)(F)F)c2)cc1Nc1nc(-c2cccnc2)nc2c1cnn2C,ED50,[1],0.0139 µM
same,ED50,[2],3.42 µM
same,ED50,[3],0.537 µM
same,ED50,[4],3.81 µM
same,ED50,[5],0.00531 µM
same,ED50,[6],0.0365 µM
same,ED50,[7],0.396 µM
same,ED50,[8],0.536 µM
same,ED50,[9],3.66 µM
same,ED50,[10],0.0175 µM
same,ED50,[11],4.04 µM
same,ED50,[12],13.8 µM
same,ED50,[13],0.0134 µM
same,ED50,[14],0.16 µM
same,ED50,[15],0.787 µM
same,ED50,[16],0.645 µM
same,ED50,[17],5.75 µM
same,ED50,[18],0.0304 µM
same,ED50,[19],5.49 µM
same,ED50,[20],3.01 µM
same,ED50,[21],2.14 µM
same,ED50,[22],0.0417 µM
same,ED50,[23],5.03 µM
same,ED50,[24],7.56 µM
same,IC50,[25],0.0025 µM
same,ED50,[26],2.34 µM
same,ED50,[27],14.3 µM
same,ED50,[28],0.0823 µM
same,ED50,[29],6.14 µM
same,ED50,[30],5.44 µM
same,ED50,[31],4.77 µM
same,ED50,[32],5.13 µM
same,ED50,[33],0.0217 µM
same,ED50,[34],0.173 µM
same,ED50,[35],0.108 µM
same,ED50,[36],1.87 µM
same,ED50,[37],0.114 µM
same,ED50,[38],5.62 µM
same,ED50,[39],3.55 µM
same,ED50,[40],0.08 µM
same,ED50,[41],20.2 µM
same,ED50,[42],13.4 µM
same,ED50,[43],6.22 µM
same,ED50,[44],0.758 µM
same,ED50,[45],10.3 µM
same,ED50,[46],0.00675 µM
Cc1ccc(C(=O)Nc2cccc(C(F)(F)F)c2)cc1Nc1nc(-c2cccnc2)nc2nn(C)cc12,ED50,[1],0.178 µM
same,ED50,[2],0.229 µM
same,ED50,[3],0.193 µM
same,ED50,[4],2.93 µM
same,ED50,[5],0.0576 µM
same,ED50,[6],4.12 µM
same,ED50,[7],2.04 µM
same,ED50,[8],9.4 µM
same,ED50,[9],17.5 µM
same,ED50,[10],0.0366 µM
same,ED50,[11],22.5 µM
same,ED50,[12],0.42 µM
same,ED50,[13],0.0135 µM
same,ED50,[14],0.0401 µM
same,ED50,[15],0.126 µM
same,ED50,[16],0.199 µM
same,ED50,[17],0.00743 µM
same,ED50,[18],12.9 µM
same,ED50,[19],0.961 µM
same,ED50,[20],0.135 µM
same,ED50,[21],8.18 µM
same,ED50,[22],22.4 µM
same,ED50,[23],2.39 µM
same,ED50,[24],8.47 µM
same,IC50,[25],0.63 µM
same,ED50,[26],2.78 µM
same,ED50,[27],20.9 µM
same,ED50,[28],0.0115 µM
same,ED50,[29],0.508 µM
same,ED50,[30],0.677 µM
same,ED50,[31],0.002 µM
same,ED50,[32],211 µM
same,ED50,[33],481 µM
same,ED50,[34],33.1 µM
same,ED50,[35],0.0593 µM
same,ED50,[36],0.000912 µM
same,ED50,[37],0.213 µM
same,ED50,[38],0.0113 µM
same,ED50,[39],0.00871 µM
same,ED50,[40],0.12 µM
same,ED50,[41],11.4 µM
same,ED50,[42],0.356 µM
same,ED50,[43],0.0197 µM
same,ED50,[44],1.77 µM
same,ED50,[45],0.0871 µM
same,ED50,[46],0.0052 µM

# Source: ChEMBL document CHEMBL5649169 (ChemMedChem, 2018)
